According to PubChem BioAssay (NCI):
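Assay format: 96-well plates, 48-hour exposure. GI50: concentration for 50% inhibition of growth. Definition used: TGI = concentration required for complete inhibition of growth.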

Experiments:
Experiment in all cases: growth of human tumour cells (NCI), 48 h
[1] = tested on: OVCAR-4 ovarian
[2] = tested on: SW-620 colon
[3] = tested on: A549 NSCLC
[4] = tested on: UO-31 renal
[5] = tested on: UACC-62 melanoma
[6] = tested on: HCT-116 colon
[7] = tested on: 786-0 renal
[8] = tested on: HL-60(TB) leukemia
[9] = tested on: NCI-H460 lung
[10] = tested on: MDA-MB-231 breast
[11] = tested on: HOP-92 NSCLC
[12] = tested on: SK-MEL-28 melanoma
[13] = tested on: SR leukemia
[14] = tested on: SNB-75 CNS
[15] = tested on: M14 melanoma
[16] = tested on: EKVX NSCLC
[17] = tested on: HS 578T breast
[18] = tested on: RXF 393 renal
[19] = tested on: HT29 colon
[20] = tested on: SNB-19 CNS
[21] = tested on: NCI-H226 lung
[22] = tested on: IGROV1 ovarian
[23] = tested on: SK-MEL-2 melanoma
[24] = tested on: SK-MEL-5 melanoma
[25] = tested on: DU-145 prostate
[26] = tested on: SK-OV-3 ovarian
[27] = tested on: LOX IMVI melanoma
[28] = tested on: NCI-H23 lung
[29] = tested on: MOLT-4 leukemia
[30] = tested on: SN12C renal
[31] = tested on: TK-10 renal
[32] = tested on: K-562 leukemia
[33] = tested on: MDA-MB-435
[34] = tested on: CAKI-1 renal
[35] = tested on: OVCAR-8 ovarian
[36] = tested on: PC-3 prostate
[37] = tested on: BT-549 breast
[38] = tested on: SF-539 CNS
[39] = tested on: COLO 205 colon
[40] = tested on: MALME-3M melanoma
[41] = tested on: ACHN renal
[42] = tested on: NCI-H522 lung
[43] = tested on: RPMI-8226 leukemia
[44] = tested on: HCT-15 colon
[45] = tested on: SF-295 CNS
[46] = tested on: KM12 colon
[47] = tested on: A498 renal
[48] = tested on: UACC-257 melanoma
[49] = tested on: HOP-62 NSCLC
[50] = tested on: HCC-2998 colon
[51] = tested on: OVCAR-5 ovarian
[52] = tested on: NCI/ADR-RES ovarian
[53] = tested on: SF-268 CNS
[54] = tested on: U251 CNS
[55] = tested on: MCF7 breast
[56] = tested on: CCRF-CEM leukemia
[57] = tested on: OVCAR-3 ovarian
[58] = tested on: T-47D breast

## CCc1ccc(SC2c3ccc(N(CC)CC)cc3Oc3nc(N)c(C#N)c(N)c32)cc1 (configuration not stated)
[1]
  GI50: 1700 nM
  TGI: 3090 nM
[2]
  GI50: 1880 nM
  TGI: 3510 nM
[3]
  GI50: 1810 nM
  TGI: 3320 nM
[4]
  GI50: 1450 nM
  TGI: 2760 nM
[5]
  GI50: 1700 nM
  TGI: 3130 nM
[6]
  GI50: 1130 nM
  TGI: 2490 nM
[7]
  GI50: 1740 nM
  TGI: 3170 nM
[8]
  GI50: 2590 nM
  TGI: 8340 nM
[9]
  GI50: 1840 nM
  TGI: 3550 nM
[10]
  GI50: 1630 nM
  TGI: 3040 nM
[11]
  GI50: 1480 nM
  TGI: 2840 nM
[12]
  GI50: 1890 nM
  TGI: 3310 nM
[13]
  GI50: 482 nM
  TGI: > 100000 nM
[14]
  GI50: 1500 nM
  TGI: 2830 nM
[15]
  GI50: 1450 nM
  TGI: 2830 nM
[16]
  GI50: 710 nM
  TGI: 2070 nM
[17]
  GI50: 1760 nM
  TGI: 4850 nM
[18]
  GI50: 1580 nM
  TGI: 2960 nM
[19]
  GI50: 2030 nM
  TGI: 3760 nM
[20]
  GI50: 1690 nM
  TGI: 3080 nM
[21]
  GI50: 2010 nM
  TGI: 4520 nM
[22]
  GI50: 1440 nM
  TGI: 2890 nM
[23]
  GI50: 1740 nM
  TGI: 3170 nM
[24]
  GI50: 1770 nM
  TGI: 3170 nM
[25]
  GI50: 1860 nM
  TGI: 3260 nM
[26]
  GI50: 1890 nM
  TGI: 3340 nM
[27]
  GI50: 671 nM
  TGI: 1970 nM
[28]
  GI50: 1530 nM
  TGI: 3030 nM
[29]
  GI50: 2190 nM
  TGI: > 100000 nM
[30]
  GI50: 1680 nM
  TGI: 3130 nM
[31]
  GI50: 2750 nM
  TGI: 4260 nM
[32]
  GI50: 3120 nM
  TGI: > 100000 nM
[33]
  GI50: 1680 nM
  TGI: 3100 nM
[34]
  GI50: 1630 nM
  TGI: 3000 nM
[35]
  GI50: 1710 nM
  TGI: 3130 nM
[36]
  GI50: 1410 nM
  TGI: 2900 nM
[37]
  GI50: 1300 nM
  TGI: 2590 nM
[38]
  GI50: 1660 nM
  TGI: 3050 nM
[39]
  GI50: 1920 nM
  TGI: 3510 nM
[40]
  GI50: 1750 nM
  TGI: 3160 nM
[41]
  GI50: 1670 nM
  TGI: 3040 nM
[42]
  GI50: 1780 nM
  TGI: 3280 nM
[43]
  GI50: 2180 nM
  TGI: 6080 nM
[44]
  GI50: 1620 nM
  TGI: 3340 nM
[45]
  GI50: 1760 nM
  TGI: 3200 nM
[46]
  GI50: 1580 nM
  TGI: 3030 nM
[47]
  GI50: 1630 nM
  TGI: 3010 nM
[48]
  GI50: 1840 nM
  TGI: 3280 nM
[49]
  GI50: 1830 nM
  TGI: 3330 nM
[50]
  GI50: 1860 nM
  TGI: 3390 nM
[51]
  GI50: 1800 nM
  TGI: 3240 nM
[52]
  GI50: 2090 nM
  TGI: 4960 nM
[53]
  GI50: 1760 nM
  TGI: 3270 nM
[54]
  GI50: 1440 nM
  TGI: 2820 nM

## CN1CCN(Cc2ccc(NC(=O)c3cncc(C#Cc4cnc5ccc(N6CCOCC6)nn45)c3)cc2C(F)(F)F)CC1
[1]
  GI50: 99.1 nM
  TGI: 543 nM
[55]
  GI50: 26.9 nM
  TGI: 442 nM
[2]
  GI50: 49.7 nM
  TGI: 378 nM
[3]
  GI50: 121 nM
  TGI: 555 nM
[4]
  GI50: 135 nM
  TGI: 359 nM
[5]
  GI50: 86.3 nM
  TGI: 419 nM
[56]
  GI50: 125 nM
  TGI: 5980 nM
[6]
  GI50: 26.3 nM
  TGI: 342 nM
[7]
  GI50: 144 nM
  TGI: 433 nM
[8]
  GI50: 23.9 nM
  TGI: 224 nM
[9]
  GI50: 84.5 nM
  TGI: 254 nM
[10]
  GI50: 33 nM
  TGI: 204 nM
[12]
  GI50: 122 nM
  TGI: 433 nM
[13]
  GI50: 97.2 nM
  TGI: 367 nM
[57]
  GI50: 99.4 nM
  TGI: 407 nM
[14]
  GI50: 47.7 nM
  TGI: 155 nM
[15]
  GI50: 50.6 nM
  TGI: 122 nM
[16]
  GI50: 101 nM
  TGI: 564 nM
[17]
  GI50: 85.3 nM
  TGI: 353 nM
[18]
  GI50: 78.6 nM
  TGI: 175 nM
[19]
  GI50: 31.3 nM
  TGI: 392 nM
[20]
  GI50: 163 nM
  TGI: 686 nM
[21]
  GI50: 23.9 nM
  TGI: 320 nM
[22]
  GI50: 46.8 nM
  TGI: 430 nM
[23]
  GI50: 68 nM
  TGI: 144 nM
[24]
  GI50: 225 nM
  TGI: 814 nM
[25]
  GI50: 93.6 nM
  TGI: 398 nM
[26]
  GI50: 144 nM
  TGI: 405 nM
[27]
  GI50: 59.3 nM
  TGI: 142 nM
[28]
  GI50: 79.6 nM
  TGI: 325 nM
[29]
  GI50: 95.8 nM
  TGI: 1460 nM
[30]
  GI50: 49.5 nM
  TGI: 300 nM
[31]
  GI50: 79.9 nM
  TGI: 229 nM
[32]
  GI50: 5 nM
  TGI: 1900 nM
[33]
  GI50: 53.3 nM
  TGI: 231 nM
[34]
  GI50: 51.9 nM
  TGI: 174 nM
[35]
  GI50: 134 nM
  TGI: 541 nM
[36]
  GI50: 145 nM
  TGI: 1040 nM
[37]
  GI50: 259 nM
  TGI: 763 nM
[38]
  GI50: 60 nM
  TGI: 205 nM
[39]
  GI50: 53.6 nM
  TGI: 129 nM
[40]
  GI50: 37.2 nM
  TGI: 153 nM
[41]
  GI50: 131 nM
  TGI: 510 nM
[42]
  GI50: 68 nM
  TGI: 161 nM
[43]
  GI50: 153 nM
  TGI: 553 nM
[44]
  GI50: 112 nM
  TGI: 375 nM
[58]
  GI50: 199 nM
  TGI: 2620 nM
[45]
  GI50: 140 nM
  TGI: 686 nM
[46]
  GI50: 5 nM
  TGI: 243 nM
[47]
  GI50: 97.5 nM
  TGI: 189 nM
[48]
  GI50: 160 nM
  TGI: 936 nM
[49]
  GI50: 100 nM
  TGI: 328 nM
[50]
  GI50: 130 nM
  TGI: 474 nM
[51]
  GI50: 85.8 nM
  TGI: 548 nM
[52]
  GI50: 814 nM
  TGI: 3750 nM
[53]
  GI50: 82.3 nM
  TGI: 218 nM
[54]
  GI50: 141 nM
  TGI: 558 nM
